In patent US10774092B2 (SALK INSTITUTE FOR BIOLOGICAL STUDIES, priority 2014, dated 2020):

Assays:
A549 lung cancer cells = assay: Cyto-ID autophagy dye detection of autophagic vacuoles; format: cell-based; conditions: 5-μM 6965 with AZD8055
Experimental: FIG. 9E is an immunoflourescence imaging of A549 cells treated in the presence or absence of 5 μM compound 14 for 2 hr followed by 4 μM of the mTOR catalytic inhibitor AZD8055 for 24 hr. Autophagic vacuoles were detected using the Cyto-ID autophagy detection kit and are visualized in green, while cell nuclei were counterstained by DAPI and are visualized in blue.
To test the ability of compound 14 to block autophagy and cell survival, initial studies were performed in A549 lung cancer cells, which are highly sensitive to mTOR inhibition. […] Next, we genetically assessed the requirement for ULK1 versus other kinases inhibited by compound 14 to induce autophagy after pharmacological mTOR inhibition. A robust high-throughput microscopy method for quantifying GFP-LC3 puncta was established using a PC3 prostate-cancer cell line stably expressing a GFP-LC3 construct. Using this assay, we performed a focused RNAi analysis of the top 20 kinases identified in the DiscovRx screen as best binding to compound 14. […] Strikingly, of the 18 kinases tested, only one kinase siRNA, ULK1, nearly fully abolished the LC3 puncta induced by the mTOR inhibitors (FIG. 9D).

endogenous ULK1 activity = assay: mobility shift of endogenous Beclin1 and Atg13 (endogenous ULK1 activity) in MEFs; format: cell-based, mouse; conditions: WT MEFs, 10 μM co-treatment, 1 hr
Experimental: FIG. 7D: WT or Ulk1/Ulk2 double knockout mouse embryonic fibroblasts (MEFs) were treated with fresh media (Dulbecco's modified Eagle medium [DMEM] containing 10% FBS) containing 1-μM INK128, 1-μM AZD8055, or DMSO or with starvation media (EBSS) in the presence or absence of 10 μM compound 14. Cellular lysates were isolated after 1 hr of treatment and immunoblotted with the indicated antibodies. Asterisk denotes non-specific band.
We next examined whether compound 14 inhibits endogenous ULK1 activity. To activate endogenous ULK1, we treated MEFs with either amino acid starvation media (Earle's balanced salt solution [EBSS]) or the mTOR ATP-competitive inhibitors INK128 or AZD8055. In WT MEFs, we observed a mobility shift in endogenous Beclin1 and Atg13 in response to EBSS starvation media or the mTOR catalytic inhibitors, which was abolished in Ulk1/2-deficient MEFs (FIG. 7D). […] In certain embodiments, the mobility shifts observed in endogenous Beclin1 and Atg13 induced by mTOR inhibitors and starvation media reflect phosphorylation of endogenous Beclin1/Atg13 by endogenous ULK1/2 as they only occur in WT but not Ulk1/2-deficient MEFs.

With `CNC(=O)c1ccccc1Nc1nc(Nc2cc(OC)c(OC)c(OC)c2)ncc1Br` [compound 14, 2-(5-bromo-2-(3,4,5-trimethoxyphenylamino)pyrimidin-4-ylamino)-N-methylbenzamide] the “effect on AZD8055-induced autophagy (Cyto-ID dye accumulation)” value (A549 lung cancer cells) was “strongly suppressed” and the “EBSS and mTOR-inhibitor induced mobility shift in Beclin1 and Atg13” value (endogenous ULK1 activity) was “inhibited”.
